The numbers were not newly measured in PMC12525602, “Identification of Selective α-Glucosidase Inhibitors via Virtual Screening with Machine Learning” (Molecules, 2025), which cites them from elsewhere.

The first series has as its system α-glucosidase. The note with it: Table S5 modeling dataset; activity label 1 = active, 0 = inactive; cited from earlier work.
As to `O=C(O)C1(O)C[C@@H](O)C(O)[C@H](O)C1` (stereo partly drawn) [compound 91], the activity is 0.
Consider `CC1CCCN(c2ccc(/C=N/Nc3nc(-c4ccc(O)c(O)c4)cs3)cc2)C1` (stereo not drawn) [compound 93], for which the activity is given as 0.
With `O=C(NNS(=O)(=O)c1ccc(OC(F)(F)F)cc1)c1cc2cc(F)ccc2[nH]1` [compound 94], the activity is given as 0.
As for `O=C(c1ccccc1)c1ccc2nc(-c3ccc(F)cc3)[nH]c2c1` [compound 95], the activity is given as 0.
For `N#Cc1c(-c2ccc(Cl)cc2)cc(-c2cccnc2)c(C#N)c1N` [compound 97], the activity is listed as 0.
As to `CCCCCCCC/C=C\CCCCCCCCCC(=O)O` [compound 98], the activity is on record as 0.
Consider `Brc1cccc(CSc2nnc(COc3cccc4cccnc34)o2)c1` [compound 99], for which the activity is 0.
Turning to `COc1cccc(C(=O)C2C(O)c3ccccc3S(=O)(=O)N2CC(=O)Nc2ccc([N+](=O)[O-])cc2)c1` (stereo not drawn) [compound 101], the activity is 0.
For the compound `COc1ccccc1Nc1nnc(-c2cc3cc(C#N)ccc3[nH]2)s1` [compound 102], the activity is on record as 0.
In the case of `N#Cc1c(-c2ccc(Cl)cc2)cc(-c2ccc([N+](=O)[O-])cc2)c(C#N)c1N` [compound 103], the activity is recorded as 0.
With `O=c1c(O[C@@H]2OC[C@H](O)[C@H](O)[C@H]2O)c(-c2ccc(O)c(O)c2)oc2cc(O)cc(O)c12` [compound 104], the activity is listed as 0.
As to `COc1ccc(S(=O)(=O)NNC(=O)c2cc3cc(F)ccc3[nH]2)cc1` [compound 105], the activity is 0.
Regarding `CC1CCCN(c2ccc(/C=N/Nc3nc(-c4ccc(C#N)cc4)cs3)cc2)C1` (stereo not drawn) [compound 106], the activity is given as 0.
Take `Brc1ccc(CSc2nnc(COc3cccc4cccnc34)o2)cc1` [compound 107]: the activity is recorded as 0.
For the compound `Fc1ccc(CSc2nnc(COc3cccc4cccnc34)o2)c(F)c1` [compound 108], the activity is given as 0.
Take `O=C(NNS(=O)(=O)c1ccc([N+](=O)[O-])cc1)c1cc2cc(F)ccc2[nH]1` [compound 109]: the activity was 0.
For the compound `O=C(c1ccccc1)c1ccc2nc(-c3ccc(Cl)cc3Cl)[nH]c2c1` [compound 110], the activity is listed as 0.
Turning to `Clc1ccc(CSc2nnc(COc3cccc4cccnc34)o2)c(Cl)c1` [compound 111], the activity is 0.
`CC1CCN(c2ccc(/C=N/Nc3nc(-c4ccccc4)cs3)cc2)CC1` [compound 112]: the activity is 0.
Consider `N#Cc1c(-c2ccncc2)cc(-c2ccc(Cl)cc2)c(C#N)c1N` [compound 113], for which the activity was 0.
Take `O=C(c1ccccc1)c1ccc2nc(-c3ccc(Cl)cc3)[nH]c2c1` [compound 114]: the activity was 0.
Take `Fc1ccc(-n2cc(CSc3nnc(COc4cccc5cccnc45)o3)nn2)cc1` [compound 115]: the activity was 0.
Turning to `c1ccc(CSc2nnc(COc3cccc4cccnc34)o2)cc1` [compound 116], the activity is on record as 0.
For the compound `C[C@@H]1O[C@@H](Oc2c(-c3ccc(O)cc3)oc3cc(O)cc(O)c3c2=O)[C@H](O)[C@H](O)[C@H]1O` [compound 117], the activity was 0.
`COc1cccc(C(=O)C2C(O)c3ccccc3S(=O)(=O)N2CC(=O)Nc2cccc(Br)c2)c1` (stereo not drawn) [compound 118]: the activity is reported as 0.
On to `CC1CCCN(c2ccc(/C=N/Nc3nc(-c4ccccc4)cs3)cc2)C1` (stereo not drawn) [compound 119], for which the activity is 0.
On to `N#Cc1c(-c2ccc(Cl)cc2)cc(-c2cccc([N+](=O)[O-])c2)c(C#N)c1N` [compound 120], for which the activity is listed as 0.
`Clc1ccc(CSc2nnc(COc3cccc4cccnc34)o2)cc1` [compound 121]: the activity is recorded as 0.
In the case of `N#Cc1ccc(S(=O)(=O)NNC(=O)c2cc3cc(F)ccc3[nH]2)cc1` [compound 122], the activity is listed as 0.
`CCCSc1nnc(COc2cccc3cccnc23)o1` [compound 123]: the activity is on record as 0.
On to `N#Cc1ccc2[nH]c(-c3nnc(Nc4cccc(F)c4)s3)cc2c1` [compound 124], for which the activity is 0.
For the compound `N#Cc1ccc2[nH]c(-c3nnc(Nc4ccccc4Cl)s3)cc2c1` [compound 125], the activity is listed as 0.
Regarding `CC1(C)CC[C@]2(C(=O)O)CC[C@]3(C)C(=CC[C@@H]4[C@@]5(C)CC[C@H](O)C(C)(C)[C@@H]5CC[C@]43C)[C@@H]2C1` [compound 126], the activity is recorded as 0.
Take `COC(=O)/C=C/c1ccc(O)c(OC)c1` [compound 127]: the activity is on record as 0.
On to `Fc1ccc(CSc2nnc(COc3cccc4cccnc34)o2)cc1` [compound 128], for which the activity is 0.
With `CCCCCC/C=C\CCCCCCCC(=O)O` [compound 129], the activity is 0.
Regarding `CC(C)=CCC1(O)C(O)=C(C(=O)CC(C)C)C(=O)C1(O)C(=O)C=C(C)C` (stereo not drawn) [compound 130], the activity is listed as 0.
On to `N#Cc1c(-c2ccc(Cl)cc2)cc(-c2ccc(Cl)cc2)c(C#N)c1N` [compound 131], for which the activity is 0.
For the compound `C[n+]1cccc(C(=O)[O-])c1` [compound 133], the activity was 0.
Turning to `O=C(c1ccccc1)c1ccc2nc(-c3ccc(O)cc3)[nH]c2c1` [compound 135], the activity is recorded as 0.
On to `O=C(NNS(=O)(=O)c1cccc(Cl)c1)c1cc2cc(F)ccc2[nH]1` [compound 136], for which the activity is listed as 0.
With `COc1cc(/C=C2\CC(=O)N(C(=O)CN3CCOCC3)C2=O)ccc1O` [compound 137], the activity is 0.

The series is the same for the next values; noted with them: activity label of the modeling dataset, Table S5 (1 = active, 0 = inactive); cited from earlier work.
For the compound `CC(C)=CCSc1nnc(COc2cccc3cccnc23)o1` [compound 86], the activity was 0.
As to `CC1CCCN(c2ccc(/C=N/Nc3nc(-c4ccc(F)cc4)cs3)cc2)C1` (stereo not drawn) [compound 87], the activity is listed as 0.
As for `CC(C)c1ccc(S(=O)(=O)NNC(=O)c2cc3cc(F)ccc3[nH]2)cc1` [compound 88], the activity is 0.
`O=[N+]([O-])c1ccc(CSc2nnc(COc3cccc4cccnc34)o2)cc1` [compound 89]: the activity is recorded as 0.
Turning to `O=C(NNS(=O)(=O)c1cccc2ncccc12)c1cc2cc(F)ccc2[nH]1` [compound 90], the activity is reported as 0.

Staying with this series, now noted: activity label of the modeling dataset, Table S5; cited from earlier work.
Turning to `CC(C)=CCC1=C(O)[C@@](O)(CC=C(C)C)C(=O)C(C(=O)CC(C)C)=C1O` [compound 138], the activity was 0.
Consider `O=c1c(O[C@@H]2O[C@@H](CO)[C@H](O)[C@H]2O)c(-c2ccc(O)c(O)c2)oc2cc(O)cc(O)c12` [compound 139], for which the activity is recorded as 0.
On to `CC1CCCN(c2ccc(/C=N/Nc3nc(-c4ccc(O)cc4)cs3)cc2)C1` (stereo not drawn) [compound 140], for which the activity is 0.
For the compound `CCCCCCCCCCCCCC(=O)O` [compound 141], the activity was 0.
As for `COc1cc(/C=N/N=C2\C(=O)Nc3ccccc32)ccc1OCc1cn(Cc2ccccc2C)nn1` [compound 142], the activity is reported as 0.
As to `COc1cc(/C=N/N=C2\C(=O)Nc3ccccc32)ccc1OCc1cn(Cc2ccccc2F)nn1` [compound 143], the activity is reported as 0.
Consider `COc1cc(/C=N/N=C2\C(=O)Nc3ccccc32)ccc1OCc1cn(Cc2ccc(F)cc2)nn1` [compound 144], for which the activity was 0.
Regarding `O=C1/C(=N\N=C\c2ccc(OCc3cn(Cc4ccccc4)nn3)cc2)c2ccccc2N1c1ccc(Br)cc1` [compound 145], the activity is given as 0.
On to `Cc1ccccc1Cn1cc(COc2ccc(/C=N/N=C3\C(=O)N(c4ccc(Br)cc4)c4ccccc43)cc2)nn1` [compound 146], for which the activity is listed as 0.
`Cc1ccc(Cn2cc(COc3ccc(/C=N/N=C4\C(=O)N(c5ccc(Br)cc5)c5ccccc54)cc3)nn2)cc1` [compound 147]: the activity is reported as 0.
In the case of `O=C1/C(=N\N=C\c2ccc(OCc3cn(Cc4ccccc4F)nn3)cc2)c2ccccc2N1c1ccc(Br)cc1` [compound 148], the activity is 0.
`O=C(CSc1nc2ccccc2cc1-c1nc2ccccc2[nH]1)Nc1cccc(Cl)c1` [compound 149]: the activity is listed as 1.
Take `O=C(NNS(=O)(=O)c1ccc(C(F)(F)F)cc1)c1cc2cc(F)ccc2[nH]1` [compound 150]: the activity was 1.
For `COc1cc(Br)ccc1-c1nnc(/N=C(/CSc2nnc3c(n2)[nH]c2ccccc23)c2ccc(Br)cc2Br)s1` [compound 151], the activity is given as 1.
`Brc1cc(-c2ccccc2)ccc1/C(CSc1nnc2c(n1)[nH]c1ccccc12)=N\c1nnc(-c2ccc3ccccc3c2)s1` [compound 152]: the activity is recorded as 1.
For `O=[N+]([O-])c1ccccc1-c1nnc(/N=C(/CSc2nnc3c(n2)[nH]c2ccccc23)c2ccc(Br)cc2Br)s1` [compound 153], the activity is reported as 1.
As for `N#Cc1ccc2[nH]c(-c3nnc(Nc4cccc([N+](=O)[O-])c4)s3)cc2c1` [compound 154], the activity is 1.
Consider `O=C(CCc1ccc(O)cc1)c1c(O)cc(O[C@@H]2O[C@H](CO)[C@@H](O)[C@H](O)[C@H]2O)cc1O` [compound 155], for which the activity is on record as 1.
`COc1cc(/C=C(\Oc2ccc(/C=C/C(=O)O)cc2OC)C(=O)O)ccc1O` [compound 157]: the activity is recorded as 1.
In the case of `O=c1c(O[C@@H]2O[C@H](CO)[C@@H](O)[C@H](O)[C@H]2O)c(-c2ccc(O)c(O)c2)oc2cc(O)cc(O)c12` [compound 159], the activity is listed as 1.
With `O=C(O)CCCCCCCCCCCCCCCO` [compound 160], the activity is recorded as 1.
As to `COc1cc(-c2oc3cc(O)cc(O)c3c(=O)c2O)ccc1O` [compound 161], the activity is 1.
Take `CC(C)=CCC1=C(O)C(CC=C(C)C)(CC=C(C)C)C(=O)C(C(=O)CC(C)C)=C1O` [compound 163]: the activity is 1.
As for `COc1ccc(Br)cc1-c1nnc(/N=C(/CSc2nnc3c(n2)[nH]c2ccccc23)c2cccc([N+](=O)[O-])c2)s1` [compound 164], the activity is given as 1.
As to `COc1ccc(Br)cc1-c1nnc(/N=C(/CSc2nnc3c(n2)[nH]c2ccccc23)c2ccc(-c3ccccc3)cc2)s1` [compound 165], the activity is given as 1.
